For assay [1], the system named is Pectobacterium carotovorum sub. carotovorum. As to conditions: complete inhibition of bacterial growth; overnight 25° C.; Table 1.
The test system of assay [2] is Staphylococcus epidermidis. Format: cell-based. As for the experimental part:
(§1) In-vitro inhibition assays were performed in sterile ELISA-plates (Greiner bio-one, Frickenhausen or Nunc, Wiesbaden). Antimicrobial peptides were dissolved in 0.01% acetic acid containing 0.2% BSA and stored at −20° C. […] After incubation for one day at 27° C. growth inhibition of the bacteria was analyzed by a ELISA microplate reader.

Another assay has as its system Yersinia enterocolitica. Format: cell-based. How it is done: as §1
A further assay has as its system Klebsiiella oxytoca. Format: cell-based. How it is done:
as §1

In another assay the test system is Enterobacter cloacae. Format: cell-based. How it is done: as §1
For the next assay, the system named is Pseudomonas aeruginosa. Format: cell-based. How it is done:
as §1

The next assay has as its system Klebsiella pneumoniae. Format: cell-based. How it is done: as §1
For the next assay, the system named is Cladosporium herbarum. Put plainly: MIC in-vitro inhibition assay, antifungal (Example 2). The assay is classed as cell-based. The settings on record: complete inhibition of spore germination/mycelial growth; Table 1. As for the experimental part: (§2) In-vitro inhibition assays were performed in sterile flat-bottom 96-well plates (Greiner bio-one, Frickenhausen). Antimicrobial peptides were dissolved in 0.01% acetic acid containing 0.2% BSA (500 μg/ml), filter sterilized and stored at −20° C. For inhibition assays dilutions of peptides ranging from 5 to 200 μg/ml were prepared and 10 μl (antibacterial assay) or 20 μl (antifungal assay) of each concentration was loaded per well.
(§3) Spores of fungi were collected by water washes of sporulating cultures grown on 2% malt extract agar and spore concentration was determined by microscopy. The concentration of the spores was adjusted to 1.5-2×10^3 spores/ml in 2% malt extract medium and 80 μl of fungal spores were added per well. The final peptide concentrations used in the fungal inhibition assays were 0, 2, 4, 10, 20, 40, and 100 μg/ml. After overnight incubation at room temperature the plate were put on a rotary shaker (300 rpm) for further two days to ensure consistantly growth. Antifungal effects of the peptides were determined by a microplate reader (Altemaria, Fusarium) at OD590 nm or by visual screening of the plates (Bottytis, Cladosporium).
(§4) The lowest peptide concentration leading to complete inhibition of bacterial growth or spore germination/mycelial growth (minimal inhibition concentration, MIC) was determined for each organism-peptide combination. For each peptide concentration two identical inhibition assays were performed.

The next assay relates to Botrytis cinerea. Described as above. The assay is classed as cell-based. As to conditions: complete inhibition of spore germination/mycelial growth; Table 1. How it is done:
as §2, §3, §4

In a further assay the test system is Alternaria alternata. The description is as above. Format: cell-based. The settings on record: complete inhibition of spore germination/mycelial growth; Table 1. How it is done: as §2, §3, §4
The next assay concerns Staphylococcus aureus. The assay is classed as cell-based. As for the experimental part:
(§5) In-vitro inhibition assays were performed in sterile ELISA-plates (Greiner bio-one, Frickenhausen or Nunc, Wiesbaden). Antimicrobial peptides were dissolved in 0.01% acetic acid containing 0.2% BSA and stored at −20° C. For inhibition assays dilutions of peptides ranging from 5 to 500 μg/ml were prepared and 10 μl of each concentration was loaded per well.
(§6) The optical density of bacteria overnight cultures were adjusted to 0.08-0.1 and diluted in BHI-medium (1:1000). 90 μl of this suspension containing about 10^5-10^6 CFU/ml of tested bacteria were added to each well resulting in final peptide concentrations of 0, 0.5, 1, 2, 5, 10, 20, and 50 μg/ml. After incubation for one day at 27° C. growth inhibition of the bacteria was analyzed by a ELISA microplate reader. The lowest concentration, in which there is no observable growth (>90% inhibition) is referred to as minimal inhibitory concentration (MIC).
(§7) In-vitro inhibition assays were performed as described in Example 5 above.

The subject of another assay is Escherichia coli (DH5α). The assay is classed as cell-based. As for the experimental part:
as §5, §6, §7

In the next assay the test system is Pseudomonas corrugata. As to conditions: complete inhibition of bacterial growth; overnight 25° C.; Table 1.
Assay [3] relates to Pseudomonas syringae pv. tomato. The settings on record: complete inhibition of bacterial growth; overnight 25° C.; Table 1.
The test system of another assay is Xanthomonas vesicatoria. As to conditions: complete inhibition of bacterial growth; overnight 25° C.; Table 1.
Assay [4] relates to Pseudomonas syringae pv. syringae. The settings on record: complete inhibition of bacterial growth; overnight 25° C.; Table 1.

No end group written: not given here.

On to KRRLAAFRAFRGALKSVLKK-NH2 [SP16], for which the “Minimal inhibition concentration (MIC)” value is greater than 40 µg/mL in assay [1]; 20 µg/mL in the assay with Cladosporium herbarum; greater than 100 µg/mL in the assay on Botrytis cinerea; greater than 100 µg/mL in the assay with Alternaria alternata; 2.5 µg/mL in the assay with Pseudomonas corrugata; 5 µg/mL in assay [3]. For the same substance, the “Minimal inhibition concentration (MIC)” value (in the assay on Xanthomonas vesicatoria; in assay [4]) was 5 µg/mL in each case. The “Activity against human pathogens (MIC)” value in assay [2] is 20 µg/mL; in the assay with Yersinia enterocolitica, greater than 50 µg/mL; with Klebsiiella oxytoca, greater than 50 µg/mL; in the assay on Enterobacter cloacae, greater than 50 µg/mL; in the assay on Pseudomonas aeruginosa it was greater than 50 µg/mL; in the assay on Klebsiella pneumoniae, greater than 50 µg/mL. The figures for the “Activity against human pathogens (MIC)” value in the assay on Staphylococcus aureus and with Escherichia coli (DH5α) were greater than 50 µg/mL and 10 µg/mL, respectively.

The values above are taken from US20110294721A1, “ANTIMICROBIAL PEPTIDES” (priority 2008, published 2011).
